Measurements reported in ChEMBL document CHEMBL2169792, “Synthesis of new 4-thiazolidinone-, pyrazoline-, and isatin-based conjugates with promising antitumor activity” (J Med Chem, 2012).
Activity calls are given as the source filed them. The rule behind the calls is not given here.

Tests used:
[1] = Cytotoxicity against human leukemia cells after 48 hrs by SRB assay; format: functional; conditions: Leukemia cell; for CC50: read-out: LC50 (the source's name)
[2] = Cytotoxicity against human prostate cancer cells after 48 hrs by SRB assay; format: functional; conditions: Cancer cell lines
[3] = Cytotoxicity against human CNS cancer cells after 48 hrs by SRB assay; format: functional; conditions: Cancer cell lines
[4] = Cytotoxicity against human ovarian cancer cells after 48 hrs by SRB assay; format: functional; conditions: Cancer cell lines
[5] = Cytotoxicity against human colon cancer cells after 48 hrs by SRB assay; format: functional; conditions: Cancer cell lines
OVCAR-4 = assay: Cytotoxicity against human OVCAR4 cells assessed as cell growth at 10 uM after 48 hrs by SRB assay; format: functional; conditions: OVCAR-4, 48 h, read-out: Activity
[6] = Cytotoxicity against human melanoma cells after 48 hrs by SRB assay; format: functional; conditions: Melanoma cell; for CC50: read-out: LC50 (the source's name)
[7] = Cytotoxicity against human breast cancer cells after 48 hrs by SRB assay; format: functional; conditions: Cancer cell lines
[8] = Cytotoxicity against human renal cancer cells after 48 hrs by SRB assay; format: functional; conditions: Cancer cell lines
[9] = Cytotoxicity against human non-small cell lung cancer cells after 48 hrs by SRB assay; format: functional; conditions: Cancer cell lines; for CC50: read-out: LC50 (the source's name)
OVCAR-3 = assay: Cytotoxicity against human OVCAR3 cells assessed as cell growth at 10 uM after 48 hrs by SRB assay; format: functional; conditions: OVCAR-3, 48 h, read-out: Activity
Mus musculus = assay: Antitumor activity in ip dosed athymic nude mouse hollow fiber model assessed as reduction of viable cell mass; format: functional, organism-based
[10] = Toxicity in mouse; format: organism-based; conditions: in vivo
CCRF-CEM = assay: Cytotoxicity against human CCRF-CEM cells assessed as cell growth at 10 uM after 48 hrs by SRB assay; format: functional; conditions: read-out: Activity
786-0 = assay: Cytotoxicity against human 786-0 cells assessed as cell growth at 10 uM after 48 hrs by SRB assay; format: functional; conditions: 786-0, 48 h, read-out: Activity
HL-60(TB) = assay: Cytotoxicity against human HL-60(TB) cells assessed as cell growth at 10 uM after 48 hrs by SRB assay; format: functional; conditions: HL-60, 48 h, read-out: Activity
SK-MEL-5 = assay: Cytotoxicity against human SK-MEL-5 cells assessed as cell growth at 10 uM after 48 hrs by SRB assay; format: functional; conditions: SK-MEL-5, 48 h, read-out: Activity
MOLT-4 = assay: Cytotoxicity against human MOLT4 cells assessed as cell growth at 10 uM after 48 hrs by SRB assay; format: functional; conditions: MOLT-4, 48 h, read-out: Activity

Compound | GI50 [1] [µM] | TGI [1] [µM] | CC50 [1] [µM] | GI50 [2] [nM] | TGI [2] [µM] | GI50 [3] [nM] | LC50 (concentration giving 50% net cell kill) [3] [µM] | TGI [3] [µM] | GI50 [4] [nM] | LC50 (concentration causing 50% net cell kill) [4] [µM] | TGI [4] [µM] | GI50 [5] [µM] | LC50 (concentration lethal to 50% of cells) [5] [µM] | TGI [5] [µM] | GI50 [6] [µM] | TGI [6] [µM] | CC50 [6] [µM] | GI50 [7] [µM] | LC50 (concentration causing 50% net cell kill) [7] [µM] | TGI [7] [µM] | further results
O=C1Nc2ccc(Br)cc2C1n1nc(-c2ccc3ccccc3c2)cc1-c1ccc(Cl)cc1 (centres undefined) | 10.4 | 15.2 | 79.2 | 2570 | 8.89 | 3180 | 33.3 | 10.5 | 3090 | 33.2 | 9.85 | 4.33 | 51.1 | 15 | 6.53 | 22.4 | 56.8 | 4.3 | 62.1 | 14.3 | LC50 [2]: 34.4 µM; growth at 10 µM (OVCAR-4): 58.5%; GI50 [8]: 2500 nM; LC50 [8]: 27.2 µM; TGI [8]: 7.66 µM; GI50 [9]: 3310 nM; TGI [9]: 10 µM; CC50 [9]: 34.5 µM
COc1ccc(C2=NN(C3=NC(=O)/C(=C4\C(=O)Nc5ccccc54)S3)C(c3ccc(Cl)cc3)C2)cc1 (centres undefined) | 86.5 | 90.9 | 100 | 100000 | 100 | 77500 | 100 | 100 | 100000 | 100 | 100 | 100 | 100 | 100 | 100 | 100 | 100 | 100 | 100 | 100 | growth at 10 µM (OVCAR-3): 77.5%; Activity (Mus musculus): inactive; LC50 [2]: 100 µM; MTD [10]: > 400 mg/kg; GI50 [8]: 100000 nM; LC50 [8]: 100 µM; TGI [8]: 100 µM; GI50 [9]: 92400 nM; TGI [9]: 100 µM; CC50 [9]: 100 µM
COc1ccc(-c2cc(-c3ccc(Cl)cc3)n(C3C(=O)Nc4ccc(Cl)cc43)n2)cc1 (centres undefined) | 27.9 | 79.2 | 100 | 6490 | 20.3 | 3940 | 42.2 | 14.4 | 3680 | 52.3 | 14.7 | 6.15 | 69.4 | 28.6 | 9.4 | 46.7 | 76.4 | 6.29 | 47.6 | 17.8 | growth at 10 µM (CCRF-CEM): 50.8%; LC50 [2]: 62.4 µM; GI50 [8]: 3750 nM; LC50 [8]: 42.4 µM; TGI [8]: 13.2 µM; GI50 [9]: 4370 nM; TGI [9]: 23.2 µM; CC50 [9]: 59.8 µM
COc1ccc(-c2cc(-c3ccc4ccccc4c3)nn2C2C(=O)Nc3ccccc32)cc1 (centres undefined) |  |  |  |  |  |  |  |  |  |  |  |  |  |  |  |  |  |  |  |  | growth at 10 µM (OVCAR-4): 91.5%
O=C1Nc2ccc(Br)cc2C1n1nc(-c2ccccc2)cc1-c1ccc(Cl)cc1 (centres undefined) |  |  |  |  |  |  |  |  |  |  |  |  |  |  |  |  |  |  |  |  | growth at 10 µM (786-0): 90.1%
CN(C)c1ccc(-c2cc(-c3ccccc3)nn2C2C(=O)Nc3ccccc32)cc1 (centres undefined) | 16.3 | 74.6 | 100 | 16100 | 74 | 21200 | 95.1 | 68.7 | 18900 | 93.3 | 67.2 | 16.1 | 79 | 39.7 | 19.6 | 54.5 | 91.2 | 20.8 | 90.1 | 73.4 | growth at 10 µM (HL-60(TB)): 70.9%; LC50 [2]: 100 µM; GI50 [8]: 17400 nM; LC50 [8]: 86.2 µM; TGI [8]: 57.3 µM; GI50 [9]: 16200 nM; TGI [9]: 56 µM; CC50 [9]: 90.9 µM
CN(C)c1ccc(C2CC(c3ccccc3)=NN2C2=NC(=O)/C(=C3\C(=O)Nc4ccc(Cl)cc43)S2)cc1 (centres undefined) | 0.34 | 3.11 | 100 | 250 | 0.69 | 190 | 1.63 | 0.43 | 240 | 48.8 | 0.62 | 0.19 | 16.5 | 0.41 | 0.26 | 0.57 | 2.16 | 0.22 | 2.32 | 0.53 | LC50 [2]: 12.8 µM; growth at 10 µM (SK-MEL-5): -52.9%; GI50 [8]: 190 nM; LC50 [8]: 15.3 µM; TGI [8]: 0.43 µM; GI50 [9]: 210 nM; TGI [9]: 0.51 µM; CC50 [9]: 37.9 µM
COc1ccc(-c2cc(-c3ccc(Cl)cc3)n(C3C(=O)Nc4ccc(Br)cc43)n2)cc1 (centres undefined) | 12.3 | 67 | 100 | 7650 | 22.1 | 5480 | 46.5 | 16.7 | 9750 | 64.8 | 28.7 | 7.2 | 78.8 | 36.3 | 13.2 | 49.3 | 81.1 | 8.1 | 65.8 | 24.6 | growth at 10 µM (CCRF-CEM): 58.6%; LC50 [2]: 61.2 µM; GI50 [8]: 9200 nM; LC50 [8]: 62.1 µM; TGI [8]: 32.3 µM; GI50 [9]: 7530 nM; TGI [9]: 30 µM; CC50 [9]: 58.6 µM
O=C1N=C(N2N=C(c3ccccc3)CC2c2ccc(Cl)cc2)S/C1=C1/C(=O)Nc2ccccc21 (centres undefined) | 0.37 | 70.8 | 100 | 250 | 0.85 | 190 | 2.07 | 0.5 | 230 | 26.7 | 0.65 | 0.19 | 0.81 | 0.39 | 0.28 | 0.54 | 1 | 0.32 | 39.4 | 0.91 | growth at 10 µM (SK-MEL-5): -56.9%; GI50 [8]: 270 nM; LC50 [8]: 22.1 µM; TGI [8]: 0.85 µM; GI50 [9]: 230 nM; TGI [9]: 6.29 µM; CC50 [9]: 30 µM
COc1ccc(C2CC(c3ccccc3)=NN2C2=NC(=O)/C(=C3\C(=O)Nc4ccccc43)S2)cc1 (centres undefined) | 1.64 | 20.8 | 93 | 1520 | 3.35 | 1620 | 7.39 | 3.45 | 2300 | 71.1 | 19 | 1.81 | 32 | 4.39 | 2 | 4.51 | 38 | 2.02 | 39 | 4.58 | growth at 10 µM (OVCAR-3): -51.4%; LC50 [2]: 7.37 µM; GI50 [8]: 2010 nM; LC50 [8]: 34.3 µM; TGI [8]: 4.27 µM; GI50 [9]: 2380 nM; TGI [9]: 6.04 µM; CC50 [9]: 70.8 µM
COc1ccc(-c2cc(-c3ccc4ccccc4c3)nn2C2C(=O)Nc3ccc(Cl)cc32)cc1 (centres undefined) |  |  |  |  |  |  |  |  |  |  |  |  |  |  |  |  |  |  |  |  | growth at 10 µM (MOLT-4): 98.2%
COc1ccc(C2=NN(C3=NC(=O)/C(=C4\C(=O)Nc5ccc(Br)cc54)S3)C(c3ccc(Cl)cc3)C2)cc1 (centres undefined) | 0.19 | 14 | 100 | 180 | 1.01 | 120 | 15.7 | 1.48 | 190 | 29.8 | 14.7 | 0.13 | 16.1 | 7.44 | 0.16 | 0.34 | 0.99 | 0.14 | 19.2 | 0.4 | LC50 [2]: 100 µM; growth at 10 µM (SK-MEL-5): -56.4%; GI50 [8]: 140 nM; LC50 [8]: 4 µM; TGI [8]: 0.37 µM; GI50 [9]: 120 nM; TGI [9]: 0.34 µM; CC50 [9]: 12.4 µM
O=C1N=C(N2N=C(c3ccccc3)CC2c2ccccc2O)S/C1=C1/C(=O)Nc2ccc(Br)cc21 (centres undefined) | 0.27 | 1.05 | 9.49 | 290 | 0.93 | 240 | 4.12 | 0.72 | 280 | 19 | 0.94 | 0.21 | 1.67 | 0.46 | 0.23 | 0.66 | 2.43 | 0.26 | 3.59 | 0.8 | LC50 [2]: 7.68 µM; growth at 10 µM (SK-MEL-5): -53.9%; GI50 [8]: 230 nM; LC50 [8]: 2.55 µM; TGI [8]: 0.63 µM; GI50 [9]: 240 nM; TGI [9]: 0.67 µM; CC50 [9]: 7.24 µM
